This is an account of results in US20250084095A1, “Aminopyrimidine Derivatives as Cyclin-Dependent Kinase Inhibitors” (Accutar Biotechnology Inc., priority 2023, published 2025).

Bounds are passed on as bounds.

The test system of assay [1] is Phospho-Rb (Ser807/811) in MCF7 cells. In words: Phospho-Rb expression inhibition in MCF7 cells quantified by in cell Western. The following applies: Homo sapiens, MCF7, 24 h, 24 hours, in cell Western, read-out: MCF7 pRb IC50. The format is cell-based, human. Summed up:
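MCF7 cells were seeded at 20,000/well, grown overnight, then treated 24 h at 37 °C with compound dilutions (0.1% DMSO from 1000× stocks). Fixed cells were co-stained for phospho-Rb Ser807/811 and total Rb. Near-infrared dual-channel in-cell Western imaging was the read-out.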

A further assay deals with 22RV1 cells. As to the kind of experiment: Cell growth inhibition of 22RV1 cells (CellTiter-Glo). The following applies: Homo sapiens, 22Rv1, 120 h, 5 days, CellTiter-Glo, read-out: 22RV1 Cell Growh GI50. The format is cell-based. Summed up: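 22RV1 cells were plated in RPMI1640 with FBS (20% in one version, 10% in the other) and dosed next day at various concentrations from DMSO stocks. After 5 days at 37 °C, viability was measured by CellTiter-Glo luminescence.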

Turning to `CC(C)c1cn(C)c(=O)c2c(F)cc(-c3nc(N[C@@H]4C[C@H]5CO[C@H](O5)[C@H]4O)ncc3Cl)cc12` [Compound 188, 6-(5-chloro-2-(((1S,3R,4S,5R)-4-hydroxy-6,8-dioxabicyclo[3.2.1]octan-3-yl)amino)pyrimidin-4-yl)-8-fluoro-4-isopropyl-2-methylisoquinolin-1(2H)-one], in assay [1], the IC50 was in the range of 150 to 1000 nM. Further, the GI50 in the assay on 22RV1 cells lay in the range of 120 to 450 nM.

Take `Cc1c(-c2nc(N[C@@H]3C[C@H]4CO[C@H](O4)[C@H]3O)ncc2F)sc2c(C(C)C)cn(C)c(=O)c12` [Compound 189, 2-(5-fluoro-2-(((1S,3R,4S,5R)-4-hydroxy-6,8-dioxabicyclo[3.2.1]octan-3-yl)amino)pyrimidin-4-yl)-7-isopropyl-3,5-dimethylthieno[3,2-c]pyridin-4(5H)-one]: in assay [1], the IC50 is no more than 40 nM. For the same compound, the GI50 with 22RV1 cells was no more than 120 nM.

`Cc1c(C)n(C(C)C)c2cc(-c3nc(N[C@@H]4C[C@H]5CO[C@H](O5)[C@H]4O)ncc3F)ccc2c1=O` [Compound 190, 7-(5-fluoro-2-(((1S,3R,4S,5R)-4-hydroxy-6,8-dioxabicyclo[3.2.1]octan-3-yl)amino)pyrimidin-4-yl)-1-isopropyl-2,3-dimethylquinolin-4(1H)-one]: the IC50 in assay [1] was in the range of 40 to 150 nM. For the same compound, the GI50 with 22RV1 cells was 120 to 450 nM.

`Cc1c(C(F)F)c(=O)c2ccc(-c3nc(N[C@@H]4C[C@H]5CO[C@H](O5)[C@H]4O)ncc3F)cc2n1C(C)C` [Compound 192, 3-(difluoromethyl)-7-(5-fluoro-2-(((1S,3R,4S,5R)-4-hydroxy-6,8-dioxabicyclo[3.2.1]octan-3-yl)amino)pyrimidin-4-yl)-1-isopropyl-2-methylquinolin-4(1H)-one]: in assay [1], the IC50 lay within 150 to 1000 nM. Further, the GI50 with 22RV1 cells lay in the range of 120 to 450 nM.

`Cc1c(CN)n(C(C)C)c2cc(-c3nc(N[C@@H]4C[C@H]5CO[C@H](O5)[C@H]4O)ncc3F)ccc2c1=O` [Compound 193, 2-(aminomethyl)-7-(5-fluoro-2-(((1S,3R,4S,5R)-4-hydroxy-6,8-dioxabicyclo[3.2.1]octan-3-yl)amino)pyrimidin-4-yl)-1-isopropyl-3-methylquinolin-4(1H)-one]: the IC50 in assay [1] was in the range of 150 to 1000 nM. In addition, the GI50 in the assay on 22RV1 cells lay within 120 to 450 nM.

As for `Cc1c(CN2CC(O)C2)n(C(C)C)c2cc(-c3nc(N[C@@H]4C[C@H]5CO[C@H](O5)[C@H]4O)ncc3F)ccc2c1=O` [Compound 198, 7-(5-fluoro-2-(((1S,3R,4S,5R)-4-hydroxy-6,8-dioxabicyclo[3.2.1]octan-3-yl)amino)pyrimidin-4-yl)-2-((3-hydroxyazetidin-1-yl)methyl)-1-isopropyl-3-methylquinolin-4(1H)-one], the IC50 in assay [1] was in the range of 150 to 1000 nM. Besides, in the assay with 22RV1 cells, the GI50 was 450 to 3000 nM.

Take `CC(C)n1c(CN2[C@@H](C)COC[C@@H]2C)c(F)c(=O)c2ccc(-c3nc(N[C@@H]4C[C@H]5CO[C@H](O5)[C@H]4O)ncc3F)cc21` [Compound 200, 2-(((3S,5S)-3,5-dimethylmorpholino)methyl)-3-fluoro-7-(5-fluoro-2-(((1S,3R,4S,5R)-4-hydroxy-6,8-dioxabicyclo[3.2.1]octan-3-yl)amino)pyrimidin-4-yl)-1-isopropylquinolin-4(1H)-one]: the IC50 in assay [1] was in the range of 40 to 150 nM. Moreover, in the assay on 22RV1 cells, the GI50 fell in the range of 120 to 450 nM.

With `Cc1c(CN2CC[C@H](O)C2)n(C(C)C)c2cc(-c3nc(N[C@@H]4C[C@H]5CO[C@H](O5)[C@H]4O)ncc3F)ccc2c1=O` [Compound 207, 7-(5-fluoro-2-(((1S,3R,4S,5R)-4-hydroxy-6,8-dioxabicyclo[3.2.1]octan-3-yl)amino)pyrimidin-4-yl)-2-(((S)-3-hydroxypyrrolidin-1-yl)methyl)-1-isopropyl-3-methylquinolin-4(1H)-one], the IC50 in assay [1] is 40 to 150 nM. Besides, in the assay with 22RV1 cells, the GI50 is no more than 120 nM.

As for `Cc1c(CN2CCC(F)(F)C2)n(C(C)C)c2cc(-c3nc(N[C@@H]4C[C@H]5CO[C@H](O5)[C@H]4O)ncc3F)ccc2c1=O` [Compound 208, 2-((3,3-difluoropyrrolidin-1-yl)methyl)-7-(5-fluoro-2-(((1S,3R,4S,5R)-4-hydroxy-6,8-dioxabicyclo[3.2.1]octan-3-yl)amino)pyrimidin-4-yl)-1-isopropyl-3-methylquinolin-4(1H)-one], the IC50 in assay [1] was no more than 40 nM. Moreover, in the assay on 22RV1 cells, the GI50 was no more than 120 nM.

With `CC(C)n1c(CN2[C@@H](C)COC[C@@H]2C)cc(=O)c2ccc(-c3nc(N[C@@H]4C[C@H]5CO[C@H](O5)[C@H]4O)ncc3F)cc21` [Compound 209, 2-(((3S,5S)-3,5-dimethylmorpholino)methyl)-7-(5-fluoro-2-(((1S,3R,4S,5R)-4-hydroxy-6,8-dioxabicyclo[3.2.1]octan-3-yl)amino)pyrimidin-4-yl)-1-isopropylquinolin-4(1H)-one], in assay [1], the 50% inhibitory concentration (IC50) was 40 to 150 nM. In addition, the GI50 in the assay on 22RV1 cells lay in the range of 120 to 450 nM.

With `CC(C)n1c(CN2CC[C@@H](F)C2)cc(=O)c2ccc(-c3nc(N[C@@H]4C[C@H]5CO[C@H](O5)[C@H]4O)ncc3F)cc21` [Compound 210, 7-(5-fluoro-2-(((1S,3R,4S,5R)-4-hydroxy-6,8-dioxabicyclo[3.2.1]octan-3-yl)amino)pyrimidin-4-yl)-2-(((R)-3-fluoropyrrolidin-1-yl)methyl)-1-isopropylquinolin-4(1H)-one], the IC50 in assay [1] is 150 to 1000 nM. The GI50 with 22RV1 cells fell in the range of 450 to 3000 nM.

Regarding `Cc1c(CN2CCOC2=O)n(C(C)C)c2cc(-c3nc(N[C@@H]4C[C@H]5CO[C@H](O5)[C@H]4O)ncc3F)ccc2c1=O` [Compound 211, 3-((7-(5-fluoro-2-(((1S,3R,4S,5R)-4-hydroxy-6,8-dioxabicyclo[3.2.1]octan-3-yl)amino)pyrimidin-4-yl)-1-isopropyl-3-methyl-4-oxo-1,4-dihydroquinolin-2-yl)methyl)oxazolidin-2-one], in assay [1], the IC50 was greater than 1000 nM. Further, the GI50 in the assay with 22RV1 cells was greater than 3000 nM.

For the compound `Cc1c(CN2C[C@H](C)OC2=O)n(C(C)C)c2cc(-c3nc(N[C@@H]4C[C@H]5CO[C@H](O5)[C@H]4O)ncc3F)ccc2c1=O` [Compound 212, (S)-3-((7-(5-fluoro-2-(((1S,3R,4S,5R)-4-hydroxy-6,8-dioxabicyclo[3.2.1]octan-3-yl)amino)pyrimidin-4-yl)-1-isopropyl-3-methyl-4-oxo-1,4-dihydroquinolin-2-yl)methyl)-5-methyloxazolidin-2-one], in assay [1], the IC50 is 150 to 1000 nM. In addition, in the assay on 22RV1 cells, the GI50 was greater than 3000 nM.

As for `Cc1c(C(=O)N2[C@@H](C)COC[C@@H]2C)n(C(C)C)c2cc(-c3nc(N[C@@H]4C[C@H]5CO[C@H](O5)[C@H]4O)ncc3Cl)ccc2c1=O` [Compound 213, 7-(5-chloro-2-(((1S,3R,4S,5R)-4-hydroxy-6,8-dioxabicyclo[3.2.1]octan-3-yl)amino)pyrimidin-4-yl)-2-((3S,5S)-3,5-dimethylmorpholine-4-carbonyl)-1-isopropyl-3-methylquinolin-4(1H)-one], the IC50 in assay [1] is greater than 1000 nM. The GI50 in the assay on 22RV1 cells is greater than 3000 nM.

As for `Cc1c(C(=O)N2CCOCC2)n(C(C)C)c2cc(-c3nc(N[C@@H]4C[C@H]5CO[C@H](O5)[C@H]4O)ncc3Cl)ccc2c1=O` [Compound 214, 7-(5-chloro-2-(((1S,3R,4S,5R)-4-hydroxy-6,8-dioxabicyclo[3.2.1]octan-3-yl)amino)pyrimidin-4-yl)-1-isopropyl-3-methyl-2-(morpholine-4-carbonyl)quinolin-4(1H)-one], in assay [1], the IC50 is greater than 1000 nM. Besides, the GI50 with 22RV1 cells is greater than 3000 nM.

`Cc1c(-c2nc(N[C@@H]3C[C@H]4CO[C@H](O4)[C@H]3O)ncc2F)sc2cc(CN3[C@@H](C)COC[C@@H]3C)n(C)c(=O)c12` [Compound 215, 6-(((3S,5S)-3,5-dimethylmorpholino)methyl)-2-(5-fluoro-2-(((1S,3R,4S,5R)-4-hydroxy-6,8-dioxabicyclo[3.2.1]octan-3-yl)amino)pyrimidin-4-yl)-3,5-dimethylthieno[3,2-c]pyridin-4(5H)-one]: the IC50 in assay [1] is 40 to 150 nM. Moreover, the GI50 with 22RV1 cells was 450 to 3000 nM.

`CC(C)n1c(C(C)(C)N2CCOCC2)nc2c(F)cc(-c3nc(N[C@@H]4C[C@H]5CO[C@H](O5)[C@H]4O)ncc3Cl)cc21` [Compound 219, (1S,3R,4S,5R)-3-((5-chloro-4-(4-fluoro-1-isopropyl-2-(2-morpholinopropan-2-yl)-1H-benzo[d]imidazol-6-yl)pyrimidin-2-yl)amino)-6,8-dioxabicyclo[3.2.1]octan-4-ol]: the IC50 in assay [1] was 40 to 150 nM. Besides, in the assay on 22RV1 cells, the GI50 was in the range of 120 to 450 nM.

As to `CC(C)n1c(C(C)(C)N2CC(F)(F)C2)nc2c(F)cc(-c3nc(N[C@@H]4C[C@H]5CO[C@H](O5)[C@H]4O)ncc3Cl)cc21` [Compound 222, (1S,3R,4S,5R)-3-((5-chloro-4-(2-(2-(3,3-difluoroazetidin-1-yl)propan-2-yl)-4-fluoro-1-isopropyl-1H-benzo[d]imidazol-6-yl)pyrimidin-2-yl)amino)-6,8-dioxabicyclo[3.2.1]octan-4-ol], the IC50 in assay [1] was 150 to 1000 nM. Further, the GI50 with 22RV1 cells was 450 to 3000 nM.

As for `Cc1c(-c2nc(N[C@@H]3C[C@H]4CO[C@H](O4)[C@H]3O)ncc2Cl)sc2c(C(C)C)cn(C(F)F)c(=O)c12` [Compound 231, 2-(5-chloro-2-(((1S,3R,4S,5R)-4-hydroxy-6,8-dioxabicyclo[3.2.1]octan-3-yl)amino)pyrimidin-4-yl)-5-(difluoromethyl)-7-isopropyl-3-methylthieno[3,2-c]pyridin-4(5H)-one], the IC50 in assay [1] is 40 to 150 nM. Further, the concentration for 50% growth inhibition (GI50) in the assay with 22RV1 cells fell in the range of 450 to 3000 nM.

With `Cc1c(-c2nc(N[C@@H]3C[C@H]4CO[C@H](O4)[C@H]3O)ncc2F)sc2cc(CN3CCOCC3)n(C)c(=O)c12` [Compound 232, 2-(5-fluoro-2-(((1S,3R,4S,5R)-4-hydroxy-6,8-dioxabicyclo[3.2.1]octan-3-yl)amino)pyrimidin-4-yl)-3,5-dimethyl-6-(morpholinomethyl)thieno[3,2-c]pyridin-4(5H)-one], the IC50 in assay [1] is 150 to 1000 nM. The GI50 in the assay with 22RV1 cells fell in the range of 450 to 3000 nM.
